Data set [1] concerns Liver microsomes. Nature of the data set: Intrinsic clearance in rat liver microsomes. The class given is ADME, Microsome.
Data set [2] deals with Liver microsomes. The experiment in a line: Intrinsic clearance in human liver microsomes. The class given is ADME, Microsome.
Data set [3] in a line: Volume of distribution at steady state in Sprague-Dawley rat at 2 mg/kg, po and 1 mg/kg, iv by HPLC method. The class given is ADME, organism-based. Particulars: in vivo, read-out: Vdss.
Data set [4] is described as follows: Absolute oral bioavailability in Sprague-Dawley rat at 2 mg/kg by HPLC method. It is filed as ADME, organism-based. The note with it: in vivo.
Data set [5] can be described thus: Plasma concentration in Sprague-Dawley rat at 10 mg/kg, po after 4 hrs. The class given is ADME, organism-based. The arrangement: dose 10 mg/kg, route oral.
Data set [6] is described as follows: Drug uptake in Sprague-Dawley rat brain at 3 mg/kg, po after 1 hr. Also on record: dose 3 mg/kg, route oral. The note with it: read-out: Drug uptake. It is filed as ADME, organism-based.
Data set [7] is described as follows: Plasma clearance in Sprague-Dawley rat at 2 mg/kg, po and 1 mg/kg, iv by HPLC method. It is filed as ADME, organism-based.
Data set [8] can be described thus: Plasma concentration in Sprague-Dawley rat at 3 mg/kg, po after 1 hr. The class given is ADME, organism-based. Also on record: dose 3 mg/kg, route oral.
A short description of data set [9]: Drug uptake in Sprague-Dawley rat brain at 10 mg/kg, po after 4 hrs. Also on record: dose 10 mg/kg, route oral. The class given is ADME, organism-based. The note with it: read-out: Drug uptake.

One may read the bioavailability as the share of a dose that reaches the circulation, judged against a reference dose that is usually intravenous. Read a high bioavailability as much systemic uptake.

In the case of `COCCN(CCOC)S(=O)(=O)NCCCCCNc1nc(-c2ccccn2)cs1`, the CL is 150 mL/min in data set [1] and 16 L/min in [2].

`CN(C)S(=O)(=O)NCCCCCNc1nc(-c2ccccn2)cs1`: in data set [3], the Vd is 47 L/kg. This molecule yielded a bioavailability in data set [4] of 26%. Further, the concentration at 4 h in data set [5] is 0.024 µg/mL; in data set [9], 12 ng/g. Moreover, the CL in data set [1] came to 110 mL/min; in [2], 1.8 L/min. The concentration at 1 h in [6] was determined as 4 ng/g; in [8], 0.012 µg/mL. The molecule also had a clearance in data set [7] of 8.4 L/h/kg.

As for `O=S(=O)(NCCCCCNc1nc(-c2ccccn2)cs1)N1CCOCC1`, the values for the CL in data set [1] and in [2] were 44 mL/min and 2.9 L/min, respectively.

With `CC1CN(S(=O)(=O)NCCCCCNc2nc(-c3ccccn3)cs2)CC(C)O1` (stereo not given), the results for the CL in data set [1] and in data set [2] were 74 mL/min and 11 L/min, respectively.

With `CC(C)S(=O)(=O)NCCCCCNc1nc(-c2ccccn2)cs1`, the Vd in data set [3] turned out to be 22 L/kg. In data set [4], this molecule returned a bioavailability of 49%. Further, the CL was found to be 72 mL/min in data set [1] and 2.2 L/min in data set [2]. Moreover, in data set [7], the clearance is 23 L/h/kg.

As to `CCN(CC)S(=O)(=O)NCCCCCNc1nc(-c2ccccn2)cs1`, the CL in data set [1] was 290 mL/min; in [2], 27 L/min.

Regarding `CC(C)S(=O)(=O)NCCCCCNc1nc(-c2ccsc2)cs1`, the results for the CL in data set [1] and in data set [2] were 87 mL/min and 5.4 L/min, respectively.

In turn, `CC(C)S(=O)(=O)NCCOCCNc1nc(-c2ccccn2)cs1` yielded a CL in data set [2] of 1.1 L/min.

Regarding `CN1CCN(S(=O)(=O)NCCCCCNc2nc(-c3ccccn3)cs2)CC1`, the CL in [1] is 120 mL/min; in data set [2] it was 2.5 L/min.

On to `Cc1nc(C)c(S(=O)(=O)NCCCCCNc2nc(-c3ccccn3)cs2)s1`, for which the CL in data set [2] stood at 27 L/min.

`CS(=O)(=O)NC[C@H]1CC[C@H](Nc2nc3c(s2)CCSc2ccccc2-3)CC1`: the CL in data set [1] turned out to be 40 mL/min; in data set [2], 2.5 L/min.

Source of the values: ChEMBL document CHEMBL1909589, “5-(2'-Pyridyl)-2-aminothiazoles: alkyl amino sulfonamides and sulfamides as potent NPY(5) antagonists” (Bioorg Med Chem Lett, 2011).
